From patent publication US20140057877A1, “Therapeutic polyamine compositions and their synthesis” (priority 2002, published 2014)
Where two headings read alike, the source gives them in different places.

Legend:
[1] = Oil water partition coefficients (octanol/water, HPLC); type: physicochemical; details: for lipid water partitioning, in words: passage through gastrointestinal barrier and blood brain barrier
Procedure: Partition coefficients were determined by dissolving the compound in a 1:1 mixture of octanol/water and shaking the solution for 12 hours. HPLC was used to determine the partition coefficient. The reported values are the log of the octanol/water partition

[2] = pKa by potentiometric titration; type: physicochemical; details: aqueous solution, ionic strength 0.10, 25° C.
Procedure: PKa's were determined by standard potentiometric titration methods in aqueous solution with an ionic strength of 0.10 at 25° C. Values are reported as log K values of the equilibrium constant.

[3] = test system: E. coli (GM 7359) alkA tag E. coli mutant; details: 60 minutes
Procedure: (§2) Bacteria were inoculated and cultured in nutrient agar for eighteen hours, using a shaking incubator at 140 r.p.m and 35° C. Medium contained 10 mM HEPES buffer at pH 7. Cells were centrifuged twice in Sorval RC-5 centrifuge 12,000 r.pm.×15 minutes at 4° C. and washed twice in 10 uM HEPES buffer. The resuspended cells were counted using a Hemocrit and diluted to a level of 5×10^1 cells per ml in 10 μM HEPES. The cells, the following toxins; methyl viologen (paraquat), methyl viologen (MPP^+), rotenone, daizoxide, streptozotocin and alloxan, and antidotes were added, reaching final volumes of 1 ml in Eppendorf tubes and placed on a rotator at room temperature. 10 μM diethylenetriaminepentaacetic acid was added to the samples to terminate the reactions at the specified times of either twenty or sixty minutes. 300 μL of cells were plated on Petri plates containing nutrient agar and incubated at 35° C. overnight. Colonies were counted after 20 hours. Percentage survival as compared with culture controls is calculated from the means of triplicates in each experimental group.

[4] = cited from earlier work
[5] = test system: E. coli (GM 7359) alkA tag E. coli mutant; test: Bacterial survival, toxin streptozotocin and antidotes; details: 60 minutes
Procedure: as §2

S. aureus (ATCC 29213) [6] = test: Bacterial survival, toxin diazoxide and antidotes; type: cell-based; details: 60 minutes
Procedure: (§1) Medium contained 10 mM HEPES buffer at pH 7. […] Colonies were counted after 20 hours.

[7] = test system: E. coli (GM 7359) alkA tag E. coli mutant; details: 60 minutes; remark: listed apart in the source
Procedure: as §2

M. Luteus (ATCC 499732) = test: Bacterial survival, toxin diazoxide and antidotes
Procedure: as §2

E. coli (ATCC 35150) = type: cell-based; details: 60 minutes
Procedure: as §1

S. aureus (ATCC 29213) [8] = type: cell-based
Procedure: as §1

[9] = test system: MPTP induced dopamine loss; details: previously reported; cited from earlier work
[10] = 1:1 octanol/water, shaken 12 hours, HPLC
[11] = 0.15 mM Diazoxide + 2.5 uM antidote
[12] = 0.15 mM Diazoxide + 5 uM antidote

NCCNCCNCCN [2,2,2-tetramine, reference compound]
Log Partition Coefficient Octanol:Water [1, 10]: 1.6 | lipid water partitioning, in words [1]: optimal lipid water partitioning | pKa(1) [2]: 9.7 | pKa(2) [2]: 9.1 | pKa(3) [2]: 6.6 | pKa(4) [2]: 3.3 | Mean % Survival ([3]; 100 mM Rotenone + 0.5 mM antidote): 67% | Mean % Survival ([3]; 100 mM Rotenone + 2 mM antidote): 100% | Mean % Survival ([3]; substance alone 2 mM): 100% | half life in vivo [4]: only a few hours | metabolism and excretion, in words ([4]; in vivo): rapidly metabolized to acetyl 2,2,2-tetramine and rapidly excreted

c1ccc(CNCCCNCc2ccccn2)nc1 [2,3,2-pyridine, (2-pyridylmethyl){3-[(2-pyridylmethyl)amino]propyl}amine]
Mean % Survival ([5]; 100 uM Streptozotocin + 2.5 uM antidote): 100% | Mean % Survival ([5]; 100 uM Streptozotocin + 5 uM antidote): 100% | Mean % Survival ([5]; 100 uM Streptozotocin + 20 uM antidote): 100% | Mean % Survival ([5]; substance alone 20 uM): 100% | logP at 12 h ([1]; octanol/water (1:1), 1:1 octanol/water, shaken 12 hours, HPLC, read-out: Log Partition Coefficient Octanol:Water): 2.7 | lipid water partitioning, in words [1]: optimal lipid water partitioning | pKa ([2]; read-out: pKa(1)): 8.3 | pKa ([2]; read-out: pKa(2)): 7.4 | Mean % Survival (S. aureus (ATCC 29213) [6]; [11]): 61% | Mean % Survival (S. aureus (ATCC 29213) [6]; [12]): 84% | Mean % Survival (S. aureus (ATCC 29213) [6]; substance alone 5 uM): 99% | Mean % Survival ([7]; 2 mM Alloxan + 10 uM antidote): 100% | Mean % Survival ([7]; substance alone 10 uM): 100% | Mean % Survival ([3]; 100 uM Rotenone + 2.5 uM antidote): 100% | Mean % Survival ([3]; 100 uM Rotenone + 5 uM antidote): 100% | Mean % Survival ([3]; 100 uM Rotenone + 20 uM antidote): 100% | Mean % Survival ([3]; 100 uM Rotenone + 50 uM antidote): 100% | Mean % Survival ([3]; substance alone 50 uM): 100% | Mean % Survival (M. Luteus (ATCC 499732); 0.2 mM Diazoxide + 2.5 uM antidote, T20): 96% | Mean % Survival (M. Luteus (ATCC 499732); 0.2 mM Diazoxide + 2.5 uM antidote, T60): 99% | Mean % Survival (M. Luteus (ATCC 499732); 0.2 mM Diazoxide + 5 uM antidote, T20): 93% | Mean % Survival (M. Luteus (ATCC 499732); 0.2 mM Diazoxide + 5 uM antidote, T60): 100% | Mean % Survival (M. Luteus (ATCC 499732); 0.2 mM Diazoxide + 10 uM antidote, T20): 100% | Mean % Survival (M. Luteus (ATCC 499732); 0.2 mM Diazoxide + 10 uM antidote, T60): 100% | Mean % Survival (M. Luteus (ATCC 499732); 0.2 mM Diazoxide + 20 uM antidote, T20): 100% | Mean % Survival (M. Luteus (ATCC 499732); 0.2 mM Diazoxide + 20 uM antidote, T60): 100% | Mean % Survival (M. Luteus (ATCC 499732); 0.2 mM Diazoxide + 40 uM antidote, T20): 100% | Mean % Survival (M. Luteus (ATCC 499732); 0.2 mM Diazoxide + 40 uM antidote, T60): 70% | Mean % Survival (M. Luteus (ATCC 499732); substance alone 40 uM, T20 (20 minutes)): 100% | Mean % Survival (M. Luteus (ATCC 499732); substance alone 40 uM, T60 (60 minutes)): 100%

NCCNCCCNCCN [2,3,2-tetramine, 1,3-bis-[(2′-aminoethyl)-amino]propane]
Log Partition Coefficient Octanol:Water [1, 10]: 2.1 | lipid water partitioning, in words [1]: optimal lipid water partitioning | Mean % Survival (E. coli (ATCC 35150); 1.0 mM Paraquat + 1.0 mM antidote): 100% | Mean % Survival (E. coli (ATCC 35150); substance alone 1 mM): 100% | Mean % Survival (S. aureus (ATCC 29213) [8]): 78% | Mean % Survival (S. aureus (ATCC 29213) [8]; 0.5 mM Paraquat + 1 mM antidote, 60 minutes): 80% | Mean % Survival (S. aureus (ATCC 29213) [8]; substance alone 1 mM, 60 minutes): 100% | pKa(1) [2]: 10.3 | pKa(2) [2]: 9.5 | pKa(3) [2]: 7.3 | pKa(4) [2]: 6.0 | prevention of MPTP induced dopamine loss, in words [9]: prevent MPTP induced dopamine loss | Mean % Survival (S. aureus (ATCC 29213) [6]; [11]): 65% | Mean % Survival (S. aureus (ATCC 29213) [6]; [12]): 78% | Mean % Survival (S. aureus (ATCC 29213) [6]; 0.15 mM Diazoxide + 10 uM antidote): 78% | Mean % Survival (S. aureus (ATCC 29213) [6]; 0.15 mM Diazoxide + 20 uM antidote): 75% | Mean % Survival (S. aureus (ATCC 29213) [6]; substance alone 20 uM): 99%

C[n+]1ccc(-c2cc[n+](C)cc2)cc1 [Paraquat]
Mean % Survival (E. coli (ATCC 35150); substance alone 0.5 mM): 16% | Mean % Survival (E. coli (ATCC 35150); substance alone 1 mM): 10% | Mean % Survival (S. aureus (ATCC 29213) [8]; substance alone 0.5 mM, 60 minutes): 39%
